# Measured values taken from patent US10011607B2, “Ethynyl derivatives” (Hoffmann-La Roche Inc., priority 2015, dated 2018).
# Molecular target: human mGlu4 receptor (Homo sapiens (Human), UniProt Q14833)
# Assay: Ca2+ mobilization in vitro assay on recombinant human mGlu4 expressed in HEK293 cells (PAM)
# Type: cell-based
# Settings: for Emax: HEK293, maximal response in % of maximal stimulatory effect of saturating L-AP4, read-out: Eff. (%); for EC50: HEK293 cells, human mGlu4, in presence of EC20 of L-AP4, read-out: EC50 (nM) mGlu4PAM
# Excerpt: FIG. 1: Illustrates the experimental outline for mGlu4 PAM Ca^2+ mobilization screening assay and the determination of EC50 and % Emax values. […] A depression of the signal observed after addition of the EC20 concentration of L-AP4 was indicative of an inhibitory activity of the test compound.
# Determination of EC50 Values Using a Ca2+ Mobilization In Vitro Assay on Recombinant Human mGlu4 Expressed in HEK293 Cells:
# A monoclonal HEK-293 cell line stably transfected with a cDNA encoding for the human mGlu4 receptor was generated; for the work with mGlu4 Positive Allosteric Modulators (PAMs), a cell line with low receptor expression levels and low constitutive receptor activity was selected to allow the differentiation of agonistic versus PAM activity. Cells were cultured according to standard protocols (Freshney, 2000) in Dulbecco's Modified Eagle Medium with high glucose supplemented with 1 mM glutamine, 10% (vol/vol) heat-inactivated bovine calf serum, Penicillin/Streptomycin, 50 μg/ml hygromycin and 15 μg/ml blasticidin (all cell culture reagents and antibiotics from Invitrogen, Basel, Switzerland).
# About 24 hrs before an experiment, 5×10^4 cells/well were seeded in poly-D-lysine coated, black/clear-bottomed 96-well plates. The cells were loaded with 2.5 μM Fluo-4AM in loading buffer (1×HBSS, 20 mM HEPES) for 1 hr at 37° C. and washed five times with loading buffer. The cells were transferred into a Functional Drug Screening System 7000 (Hamamatsu, Paris, France), and 11 half logarithmic serial dilutions of test compound at 37° C. were added and the cells were incubated for 10-30 min. with on-line recording of fluorescence. Following this pre-incubation step, the agonist (2S)-2-amino-4-phosphonobutanoic acid (L-AP4) was added to the cells at a concentration corresponding to EC20 with on-line recording of fluorescence; in order to account for day-to-day variations in the responsiveness of cells, the EC20 of L-AP4 was determined immediately ahead of each experiment by recording of a full dose-response curve of L-AP4.
# Responses were measured as peak increase in fluorescence minus basal (i.e. fluorescence without addition of L-AP4), normalized to the maximal stimulatory effect obtained with saturating concentrations of L-AP4. Graphs were plotted with the % maximal stimulatory using XLfit, a curve fitting program that iteratively plots the data using Levenburg Marquardt algorithm. The single site competition analysis equation used was y=A+((B−A)/(1+((x/C)D))), where y is the % maximal stimulatory effect, A is the minimum y, B is the maximum y, C is the EC50, x is the log 10 of the concentration of the competing compound and D is the slope of the curve (the Hill Coefficient). From these curves the EC50 (drug concentration at which 50% of the maximal receptor activation was achieved), the Hill coefficient as well as the maximal response in % of the maximal stimulatory effect obtained with saturating concentrations of L-AP4 were calculated (see FIG. 1).
# Chain of human mGlu4 receptor (Q14833 33-912): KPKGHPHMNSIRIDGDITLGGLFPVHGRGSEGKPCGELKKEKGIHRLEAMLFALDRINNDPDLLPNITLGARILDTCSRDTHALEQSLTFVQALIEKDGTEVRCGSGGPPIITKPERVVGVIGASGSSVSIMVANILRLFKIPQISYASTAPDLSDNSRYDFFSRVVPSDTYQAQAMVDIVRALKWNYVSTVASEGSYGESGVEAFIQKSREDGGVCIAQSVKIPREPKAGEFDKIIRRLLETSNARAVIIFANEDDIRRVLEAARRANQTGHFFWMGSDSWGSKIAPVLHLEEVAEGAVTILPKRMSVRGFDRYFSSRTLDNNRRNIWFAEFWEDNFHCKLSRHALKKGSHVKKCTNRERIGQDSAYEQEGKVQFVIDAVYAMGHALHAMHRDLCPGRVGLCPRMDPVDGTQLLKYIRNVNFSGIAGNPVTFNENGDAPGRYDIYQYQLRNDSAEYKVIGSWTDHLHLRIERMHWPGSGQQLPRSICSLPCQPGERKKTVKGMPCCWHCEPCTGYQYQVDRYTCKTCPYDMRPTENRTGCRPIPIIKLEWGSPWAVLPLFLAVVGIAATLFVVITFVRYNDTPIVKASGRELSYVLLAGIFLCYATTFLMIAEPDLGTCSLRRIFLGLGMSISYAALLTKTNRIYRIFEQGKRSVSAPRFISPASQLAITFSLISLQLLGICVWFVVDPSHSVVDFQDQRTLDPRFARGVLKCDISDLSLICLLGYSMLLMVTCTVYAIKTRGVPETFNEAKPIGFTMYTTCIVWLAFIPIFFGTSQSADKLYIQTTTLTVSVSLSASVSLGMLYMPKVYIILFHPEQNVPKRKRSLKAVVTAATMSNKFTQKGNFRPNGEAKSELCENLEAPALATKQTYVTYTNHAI
Structure (SMILES),Emax [%],EC50 [nM]
"Cn1cc(N2CCN3C(=O)N(c4c(F)cc(C#Cc5ccccc5)cc4Cl)C(=O)CC3(C)C2=O)cn1 (racemic) [Example 77, (9aRS)-7-[2-chloro-6-fluoro-4-(2-phenylethynyl)phenyl]-9a-methyl-2-(1-methylpyrazol-4-yl)-4,9-dihydro-3H-pyrazino[1,2-c]pyrimidine-1,6,8-trione]",111,104
"Cc1cccc(CN2CCN3C(=O)N(c4c(F)cc(C#Cc5ccccc5)cc4F)C(=O)CC3(C)C2=O)c1 (racemic) [Example 83, (9aRS)-7-[2,6-difluoro-4-(2-phenylethynyl)phenyl]-9a-methyl-2-(m-tolylmethyl)-4,9-dihydro-3H-pyrazino[1,2-c]pyrimidine-1,6,8-trione]",79,173
"Cc1ccc(CN2CCN3C(=O)N(c4c(F)cc(C#Cc5ccccc5)cc4F)C(=O)CC3(C)C2=O)cc1 (racemic) [Example 84, (9aRS)-7-[2,6-difluoro-4-(2-phenylethynyl)phenyl]-9a-methyl-2-(p-tolylmethyl)-4,9-dihydro-3H-pyrazino[1,2-c]pyrimidine-1,6,8-trione]",87,117
"Cc1ccccc1CN1CCN2C(=O)N(c3c(F)cc(C#Cc4ccccc4)cc3F)C(=O)CC2(C)C1=O (racemic) [Example 85, (9aRS)-7-[2,6-difluoro-4-(2-phenylethynyl)phenyl]-9a-methyl-2-(o-tolylmethyl)-4,9-dihydro-3H-pyrazino[1,2-c]pyrimidine-1,6,8-trione]",83,205
"Cc1cccc(C)c1CN1CCN2C(=O)N(c3c(F)cc(C#Cc4ccccc4)cc3F)C(=O)CC2(C)C1=O (racemic) [Example 86, (9aRS)-7-[2,6-difluoro-4-(2-phenylethynyl)phenyl]-2-[(2,6-dimethylphenyl)methyl]-9a-methyl-4,9-dihydro-3H-pyrazino[1,2-c]pyrimidine-1,6,8-trione]",118,68
"CC12CC(=O)N(c3c(F)cc(C#Cc4ccccc4)cc3F)C(=O)N1CCN(Cc1ccccc1Cl)C2=O (racemic) [Example 87, (9aRS)-2-[(2-chlorophenyl)methyl]-7-[2,6-difluoro-4-(2-phenylethynyl)phenyl]-9a-methyl-4,9-dihydro-3H-pyrazino[1,2-c]pyrimidine-1,6,8-trione]",131,87
"CC12CC(=O)N(c3c(F)cc(C#Cc4ccccc4)cc3F)C(=O)N1CCN(Cc1cccc(Cl)c1)C2=O (racemic) [Example 88, (9aRS)-2-[(3-chlorophenyl)methyl]-7-[2,6-difluoro-4-(2-phenylethynyl)phenyl]-9a-methyl-4,9-dihydro-3H-pyrazino[1,2-c]pyrimidine-1,6,8-trione]",134,73
"CC12CC(=O)N(c3c(F)cc(C#Cc4ccccc4)cc3F)C(=O)N1CCN(Cc1ccccn1)C2=O (racemic) [Example 92, (9aRS)-7-[2,6-difluoro-4-(2-phenylethynyl)phenyl]-9a-methyl-2-(2-pyridylmethyl)-4,9-dihydro-3H-pyrazino[1,2-c]pyrimidine-1,6,8-trione]",91,198
"CC12CC(=O)N(c3c(F)cc(C#Cc4ccccc4)cc3F)C(=O)N1CCN(Cc1cccnc1)C2=O (racemic) [Example 93, (9aRS)-7-[2,6-difluoro-4-(2-phenylethynyl)phenyl]-9a-methyl-2-(3-pyridylmethyl)-4,9-dihydro-3H-pyrazino[1,2-c]pyrimidine-1,6,8-trione]",90,217
"CC12CC(=O)N(c3c(F)cc(C#Cc4ccccc4)cc3F)C(=O)N1CCN(Cc1ccncc1)C2=O (racemic) [Example 94, (9aRS)-7-[2,6-difluoro-4-(2-phenylethynyl)phenyl]-9a-methyl-2-(4-pyridylmethyl)-4,9-dihydro-3H-pyrazino[1,2-c]pyrimidine-1,6,8-trione]",84,127
"CC12CC(=O)N(c3c(F)cc(C#Cc4ccccc4)cc3F)C(=O)N1CCN(Cc1ccncn1)C2=O (racemic) [Example 95, (9aRS)-7-[2,6-difluoro-4-(2-phenylethynyl)phenyl]-9a-methyl-2-(pyrimidin-4-ylmethyl)-4,9-dihydro-3H-pyrazino[1,2-c]pyrimidine-1,6,8-trione]",96,142
"Cn1cc(CN2CCN3C(=O)N(c4c(F)cc(C#Cc5ccccc5)cc4F)C(=O)CC3(C)C2=O)cn1 (racemic) [Example 96, (9aRS)-7-[2,6-difluoro-4-(2-phenylethynyl)phenyl]-9a-methyl-2-[(1-methylpyrazol-4-yl)methyl]-4,9-dihydro-3H-pyrazino[1,2-c]pyrimidine-1,6,8-trione]",151,214
"COCC12CC(=O)N(c3c(F)cc(C#Cc4ccccc4)cc3F)C(=O)N1CCN(c1cccnc1)C2=O (racemic) [Example 102, (9aRS)-7-[2,6-difluoro-4-(2-phenylethynyl)phenyl]-9a-(methoxymethyl)-2-(3-pyridyl)-4,9-dihydro-3H-pyrazino[1,2-c]pyrimidine-1,6,8-trione]",136,129
"COCC12CC(=O)N(c3c(F)cc(C#Cc4ccccc4)cc3F)C(=O)N1CCN(c1cnn(C)c1)C2=O (racemic) [Example 104, (9aRS)-7-[2,6-difluoro-4-(2-phenylethynyl)phenyl]-9a-(methoxymethyl)-2-(1-methylpyrazol-4-yl)-4,9-dihydro-3H-pyrazino[1,2-c]pyrimidine-1,6,8-trione]",148,273
"CC12CC(=O)N(c3ccc(C#Cc4ccccc4)cc3F)C(=O)N1CCN(c1cccnc1)C2=O (racemic) [Example 108, (9aRS)-7-[2-fluoro-4-(2-phenylethynyl)phenyl]-9a-methyl-2-(3-pyridyl)-4,9-dihydro-3H-pyrazino[1,2-c]pyrimidine-1,6,8-trione]",103,267
"C[C@@]12CC(=O)N(c3c(F)cc(C#Cc4ccccc4)cc3F)C(=O)N1CCN(c1ccccn1)C2=O [Example 5, (9aS)-7-[2,6-difluoro-4-(2-phenylethynyl)phenyl]-9a-methyl-2-(2-pyridyl)-4,9-dihydro-3H-pyrazino[1,2-c]pyrimidine-1,6,8-trione]",92,46
"C[C@@]12CC(=O)N(c3c(F)cc(C#Cc4ccccc4)cc3F)C(=O)N1CCN(c1cccnc1)C2=O [Example 7, (9aS)-7-[2,6-difluoro-4-(2-phenylethynyl)phenyl]-9a-methyl-2-(3-pyridyl)-4,9-dihydro-3H-pyrazino[1,2-c]pyrimidine-1,6,8-trione]",126,73
"C[C@@]12CC(=O)N(c3c(F)cc(C#Cc4ccccc4)cc3F)C(=O)N1CCN(c1ccncc1)C2=O [Example 9, (9aS)-7-[2,6-difluoro-4-(2-phenylethynyl)phenyl]-9a-methyl-2-(4-pyridyl)-4,9-dihydro-3H-pyrazino[1,2-c]pyrimidine-1,6,8-trione]",85,29
"Cc1ccnc(N2CCN3C(=O)N(c4c(F)cc(C#Cc5ccccc5)cc4F)C(=O)C[C@@]3(C)C2=O)c1 [Example 13, (9aS)-7-[2,6-difluoro-4-(2-phenylethynyl)phenyl]-9a-methyl-2-(4-methyl-2-pyridyl)-4,9-dihydro-3H-pyrazino[1,2-c]pyrimidine-1,6,8-trione]",148,131
"Cc1cncc(N2CCN3C(=O)N(c4c(F)cc(C#Cc5ccccc5)cc4F)C(=O)C[C@@]3(C)C2=O)c1 [Example 15, (9aS)-7-[2,6-difluoro-4-(2-phenylethynyl)phenyl]-9a-methyl-2-(5-methyl-3-pyridyl)-4,9-dihydro-3H-pyrazino[1,2-c]pyrimidine-1,6,8-trione]",90,152
"Cc1cncc(C)c1N1CCN2C(=O)N(c3c(F)cc(C#Cc4ccccc4)cc3F)C(=O)C[C@@]2(C)C1=O [Example 17, (9aS)-7-[2,6-difluoro-4-(2-phenylethynyl)phenyl]-2-(3,5-dimethyl-4-pyridyl)-9a-methyl-4,9-dihydro-3H-pyrazino[1,2-c]pyrimidine-1,6,8-trione]",136,201
